According to patent US5559103A, “Bivalent sialyl X saccharides” (Cytel Corporation, priority 1994, dated 1996):
“And” between values parts separate entries of the source, which are not always exact repeats. Equal values may be shown once.

Experiments:
[1] = target: T1, recombinant soluble E-selectin (Homo sapiens, UniProt P16581); test: Recombinant soluble E-selectin/HL-60 cell adhesion assay; type: cell-based; conditions: for Ratio (50 percent binding value for the standard Compound Z divided by the 50 percent binding value for the assayed sample) / IC50 value ratio of SLe^x to that of the compound: E-Selectin Cell Adhesion Assay, HL-60 cells; for Ratio (50 percent binding value for the standard Compound Z divided by the 50 percent binding value for the assayed sample): relative to Compound Z; for inhibition of HL-60 cell adhesion to recombinant soluble E-selectin-coated plates, activity order: FIG. 1, range of inhibitor concentrations (mM); for IC50 value ratio of SLe^x to that of the compound: relative to SLe^x (Table 1 value divided by 0.76)
T1 construct: The 3'-amplimer inserted the termination codon TGA after amino acid number 527 of the mature E-selectin; made in house
T1 sequence (P16581 22-548 limits assumed): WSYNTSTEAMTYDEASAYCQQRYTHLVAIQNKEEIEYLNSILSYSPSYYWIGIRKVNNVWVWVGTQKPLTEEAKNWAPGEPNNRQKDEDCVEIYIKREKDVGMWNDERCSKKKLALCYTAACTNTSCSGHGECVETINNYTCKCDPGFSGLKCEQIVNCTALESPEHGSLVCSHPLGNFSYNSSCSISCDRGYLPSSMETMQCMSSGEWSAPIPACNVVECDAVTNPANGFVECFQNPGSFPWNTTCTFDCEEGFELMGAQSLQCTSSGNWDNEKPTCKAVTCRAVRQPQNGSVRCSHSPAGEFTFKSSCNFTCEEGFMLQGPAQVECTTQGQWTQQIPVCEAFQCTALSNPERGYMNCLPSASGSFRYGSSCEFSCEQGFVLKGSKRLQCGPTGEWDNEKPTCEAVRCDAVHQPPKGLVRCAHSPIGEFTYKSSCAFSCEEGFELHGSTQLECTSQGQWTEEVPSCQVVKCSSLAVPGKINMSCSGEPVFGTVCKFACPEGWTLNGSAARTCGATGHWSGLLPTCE
Description: A modified recombinant soluble E-selectin/HL-60 cell adhesion assay was developed to provide a simple and highly reproducible method with which to compare the E-selectin blocking potential of a bivalent SLe^x saccharide compound. In this assay, recombinant soluble E-selectin (rELAM) is bound to the plastic surface of a 96 well ELISA plate. Dilutions of bivalent SLe^x saccharide compounds to be assayed are added to the wells followed by HL-60 cells which bear the ligand for E-selectin. The cells are allowed to adhere to the E-selectin coated assay plate and the nonadherent cells are removed by washing the plate with an automated plate washer. Bound cells are quantitated by measuring the cellular enzyme myeloperoxidase. The molar concentration of assayed bivalent SLe^x saccharide required to achieve 50 percent inhibition of control adhesion such as that inhibited by free SLe^x or an analog is used to compare the contemplated analogs for potency.
rELAM (recombinant modified ELAM-1) affinity purified, prepared as follows below. Each batch of rELAM was tested functionally to determine the appropriate concentration for use in the assay. A batch was titrated over a range of 1-5 μg/mL using inhibition by Compound Z (described hereinafter) as the standard. Small aliquots were then prepared, quick frozen in a dry-ice acetone bath and stored at -70° C. Each aliquot was opened only one time and then discarded or saved for use in other types of assays.
The soluble form of E-selectin (rELAM or sol-E-selectin) used here was engineered by deleting the transmembrane domain from the cDNA. This recombinant cDNA was cloned into a mammalian expression vector pCDNA1 [a derivative of pCDM8; Seed, Nature, 329:840 (1987)] that contains the chimeric cytomegalovirus/human immunodeficiency virus promoter. When introduced into the adenovirus-transformed human kidney cell line 293, expression of the CMV promoter is efficiently activated by the E1 gene products by a mechanism that has not been fully delineated. The pCDNA1-sol-E-selectin construction was introduced, via calcium phosphate-mediated gene transfer, into 293 cells and a stable cell line expressing high levels of sol-E-selectin was generated. The sol-E-selectinproduced by these cells was purified by immunoaffinity chromatograph on an anti-E-selectin monoclonal antibody Protein-A Sepharose column.
A 1.67 Kbp DNA fragment encoding a truncated structural gene for E-selectin was isolated by polymerase chain reaction (PCR) amplification of cDNA derived from messenger RNA that was isolated from IL-1-activated human endothelial cells. The 5'-amplimer inserted a unique ClaI restriction site 28 nucleotides upstream from the initiation codon of the E-selectin structural gene. The 3'-amplimer inserted the termination codon TGA after amino acid number 527 of the mature E-selectin, followed by a unique XhoI restriction site. The carboxy-terminus of sol-E-selectin is located at the carboxy terminus of the sixth consensus repeat element, thereby deleting the transmembrane domain. The 1.67 Kbp PCR fragment was codigested with ClaI and XhoI restriction endonucleases and sub-cloned into the ClaI and XhoI restriction sites of the cloning vector pBluescript II, providing vector pBS11-sol-E-selectin. Expressed soluble-E-selectin is 527 amino acid residues in length and contains 11 potential N-glycosylation sites.
1. Assays were carried out in 96-well Immunolan 2 plates (Dynatech Laboratories, Inc., Chantilly, Va. catalog #011-0103655). The rELAM (sol-E-selectin) was diluted to the appropriate concentration for the current batch. For these assays, rELAM was used at 2.5 or 3.0 μg/mL in DPBS; with well coating being carried out at room temperature. Using a multichannel pipette, 50μl per well were added to the following wells of one ELISA plate: E1-E6, F1-F6, and G1-G6. DPBS (50μl ) was added to wells H1, H2, and H3 for use as controls. This plate is referred to as the pretest plate. […]

lung injury in rats = conditions: Mulligan et al., cited from earlier work
E-selectin = conditions: monomeric; Nelson et al.; cited from earlier work
P-selectin = conditions: monomeric; Nelson et al.; cited from earlier work
[2] = infusion, cobra venom-infused rats

Structure (SMILES)	Ratio (50 percent binding value for the standard Compound Z divided by the 50 percent binding value for the assayed sample) [1]	inhibition of HL-60 cell adhesion to recombinant soluble E-selectin-coated plates, activity order [1]	IC50 value ratio of SLe^x to that of the compound [1]	accumulation of neutrophils (lung injury in rats; [2])	lung injury (lung injury in rats; [2])	IC50 (lung injury in rats; protection against lung injury in rats, read-out: in vivo IC50 value) [µM]	binding to E-selectin (E-selectin)	binding to P-selectin (P-selectin)
COC(=O)CCCCCO[C@@H]1O[C@H](CO[C@@H]2O[C@H](CO)[C@@H](O[C@@H]3O[C@H](CO)[C@H](O)[C@H](O[C@]4(C(=O)O)C[C@H](O)[C@@H](NC(C)=O)[C@H]([C@H](O)[C@H](O)CO)O4)[C@H]3O)[C@H](O[C@@H]3O[C@@H](C)[C@@H](O)[C@@H](O)[C@@H]3O)[C@H]2NC(C)=O)[C@H](O[C@@H]2O[C@H](CO)[C@@H](O[C@@H]3O[C@H](CO)[C@H](O)[C@H](O[C@]4(C(=O)O)C[C@H](O)[C@@H](NC(C)=O)[C@H]([C@H](O)[C@H](O)CO)O4)[C@H]3O)[C@H](O[C@@H]3O[C@@H](C)[C@@H](O)[C@@H](O)[C@@H]3O)[C@H]2NC(C)=O)[C@H](O)[C@H]1O [Compound 21, 5-Methoxycarbonylpentyl 4,6-bis-O-[(5-acetamido-3,5-dideoxy-α-D-glycero-D-galacto-2-nonulo-pyranosylonic acid)-yl-(2→3)-β-D-galactopyranosyl-(1→4)-(α-L-fucopyranosyl-(1→3))-2-acetamido-2-deoxy-β-D-glucopyranosyl]-β-D-galactopyranoside]	1.67	more active than Compound 20						
COC(=O)CCCCCO[C@@H]1O[C@H](CO[C@@H]2O[C@H](CO)[C@@H](O[C@@H]3O[C@H](CO)[C@H](O)[C@H](O[C@]4(C(=O)O)C[C@H](O)[C@@H](NC(C)=O)[C@H]([C@H](O)[C@H](O)CO)O4)[C@H]3O)[C@H](O[C@@H]3O[C@@H](C)[C@@H](O)[C@@H](O)[C@@H]3O)[C@H]2NC(C)=O)[C@H](O)[C@H](O)[C@H]1O[C@@H]1O[C@H](CO)[C@@H](O[C@@H]2O[C@H](CO)[C@H](O)[C@H](O[C@]3(C(=O)O)C[C@H](O)[C@@H](NC(C)=O)[C@H]([C@H](O)[C@H](O)CO)O3)[C@H]2O)[C@H](O[C@@H]2O[C@@H](C)[C@@H](O)[C@@H](O)[C@@H]2O)[C@H]1NC(C)=O [Compound 20, 5-Methoxycarbonylpentyl 2,6-bis-O-[(5-acetamido-3,5-dideoxy-α-D-glycero-D-galacto-2-nonulo-pyranosylonic acid)-yl-(2→3)-β-D-galactopyranosyl-(1→4)-(α-L-fucopyranosyl-(1→3))-2-acetamido-2-deoxy-β-D-glucopyranosyl]-β-D-galactopyranoside]	2.67		about 3.5					
CC(=O)N[C@H]1[C@H]([C@H](O)[C@H](O)CO)O[C@@](O[C@H]2[C@@H](O)[C@@H](CO)O[C@@H](O[C@H]3[C@H](O[C@@H]4O[C@@H](C)[C@@H](O)[C@@H](O)[C@@H]4O)[C@@H](NC(C)=O)C(O)O[C@@H]3CO)[C@@H]2O)(C(=O)O)C[C@@H]1O (stereo partly shown) [SLe^x, NeuAcα2→3βGalβ1→4(Fucα1→3)GlcNAc]	0.76			reduced accumulation of neutrophils	reduced lung injury	~1	binds weakly	binds weakly
CCO[C@@H]1O[C@H](CO[C@@H]2O[C@H](CO)[C@@H](O[C@@H]3O[C@H](CO)[C@H](O)[C@H](O[C@]4(C(=O)O)C[C@H](O)[C@@H](NC(C)=O)[C@H]([C@H](O)[C@H](O)CO)O4)[C@H]3O)[C@H](O[C@@H]3O[C@@H](C)[C@@H](O)[C@@H](O)[C@@H]3O)[C@H]2NC(C)=O)[C@H](O)[C@H](O[C@@H]2O[C@H](CO)[C@@H](O[C@@H]3O[C@H](CO)[C@H](O)[C@H](O[C@]4(C(=O)O)C[C@H](O)[C@@H](NC(C)=O)[C@H]([C@H](O)[C@H](O)CO)O4)[C@H]3O)[C@H](O[C@@H]3O[C@@H](C)[C@@H](O)[C@@H](O)[C@@H]3O)[C@H]2NC(C)=O)[C@H]1O [Compound 1, Ethyl 3,6-bis-O-[(ammonium 5-acetamido-3,5-dideoxy-α-D-glycero-D-galacto-2-nonulo-pyranosylonate)-(2→3)-β-D-galactopyranosyl-(1→4)-(α-L-fucopyranosyl-(1→3))-2-acetamido-2-deoxy-β-D-glucopyranosyl]-β-D-galactopyranoside]	3.8 and 2.67	the most active	3.5-5					
